Measured values taken from PMC9243654 (Frontiers in Nutrition, 2022).
Where two headings read alike, the source gives them in different places.

What was measured:
in vitro = assay: in vitro
Description: The PAMPA-BBB assay was conducted according to the methodology followed by Di et al., with some modifications as described below ([15]). First, the BBB solution was prepared by dissolving 8 mg of PBL and 4 mg of cholesterol in 600 μl of n-dodecane. The initial donor solution was prepared by mixing 1 ml of extract (10 mg ml^−1 in EtOH) with 1 ml of buffer (PBS, pH = 7.4, 10 mM). The filter membrane of the donor plate was carefully coated with 5 μl of BBB solution. The acceptor plate was filled with 350 μl of buffer, and the donor plate was carefully assembled over the acceptor plate like a “sandwich.” Finally, the donor plate was filled with 350 μl of donor solution, covered, and incubated for 4 h at 37°C in the dark. After incubation time, 300 μl of the solution was taken from both plates, transferred to separate vials, and dried in the SpeedVac system at 40°C and 13 mbar pressure. Dried acceptor and donor solution were dissolved in 50 μl of pure EtOH before subjecting to UHPLC-Q-TOF-MS analysis. Permeability across in vitro BBB of the bioactive compound was measured according to Equation (1) ([25]), with some modifications in concentration rates.
(1) Pe=-ln[1-CA(t)/Ce]/A^*(1/VD+1/VA)^*t
Cequilibrium was calculated according to the following equation ([2]):
(2) Cequilibrium=[CD(t)*VD+CA(t)*VA]/(VD+VA)

[1] = ref PubChem database, cited from earlier work
[2] = compounds of RSFE extract, octanol-water partition coefficient
[3] = compound within LPLE (Nothofagus pumilio, lenga PLE extract), classes based on Könczöl et al.
[4] = compounds identified in LPLE extract
[5] = compound within KD extract, 4 h, 37°C, PBS pH 7.4

| Compound | Log P [1, 2] | Cross BBB potential (in vitro; [3]) | Log P [1, 4] | Log P ([1]; compounds of ASFE extract) | Cross BBB potential (in vitro; compound within ASFE extract) | also measured |
| --- | --- | --- | --- | --- | --- | --- |
| COc1cc2oc(-c3ccc(O)cc3)cc(=O)c2c(O)c1OC [Crisimaritin] | 2.0 |  |  |  |  | Cross BBB potential (in vitro; PAMPA): +++; PAMPA-BBB log Pe (cm s−1) (in vitro; PAMPA, 4 h, pH 7.4): −4.36 cm s−1 |
| C[C@@H]1C(=O)C[C@@H](C(C)(C)O)O[C@@H]2C[C@@]3(C)[C@@H]4CC=C5[C@@H](C=C(O)C(=O)C5(C)C)[C@]4(C)C(=O)C[C@]3(C)[C@@H]12 [Cucurbitacin S] |  | - | 3.2 | 3.2 |  |  |
| CC12O[C@H]3C[C@@H](O1)[C@]1(C=O)[C@H]4[C@H](O)C(=O)[C@]5(C)[C@@H](c6ccc(=O)oc6)CC[C@]5(O)[C@@H]4CC[C@@]1(C3)O2 [Daigremontianin] |  |  |  |  |  | detection in the acceptor plate of PAMPA-BBB (in vitro; PAMPA): could not be found in the acceptor plate; Cross BBB potential (in vitro; compound within KD extract): ++ (log Pe > −5.5); PAMPA-BBB log Pe (cm s−1) (in vitro; [5]): −4.53 cm s−1; Log P ([1]; compounds of KD extract): −0.3 |
| O=c1ccc2cc(O[C@@H]3O[C@H](CO)[C@@H](O)[C@H](O)[C@H]3O)c(O)cc2o1 [Esculin] | −0.6 |  |  |  |  | Cross BBB potential (in vitro; PAMPA): +++ (key: -: not detected in acceptor; +: log Pe > −6.5; ++: log Pe > −5.5; +++: log Pe > −4.5); Papp (in vitro; PAMPA, pH 7.4, PAMPA-BBB log Pe (cm s−1)): 50.1 ×10⁻⁶ cm/s |
| COc1c(O)cc2oc(-c3ccc(O)c(O)c3)cc(=O)c2c1O [Eupafolin] |  |  |  |  |  | Papp at 4 h (in vitro; PAMPA, pH 7.4, PAMPA-BBB log Pe (cm s−1), compound within KD extract, 4 h, 37°C, PBS pH 7.4): 339 ×10⁻⁶ cm/s; Cross BBB potential (in vitro; compound within KD extract): +++ (log Pe > −4.5); Log P ([1]; compounds of KD extract): 1.4 |
| COc1cc(/C=C/C(=O)OC(C(=O)O)C(O)C(=O)O)ccc1O (stereo not shown) [Fertaric acid] |  | - | 0.4 | 0.4 | - |  |
| CC(C)c1cc2c(c(O)c1O)[C@@]13CCCC(C)(C)[C@@H]1[C@H](OC3=O)C2=O [Galdosol] | 4 |  |  |  |  | Cross BBB potential (in vitro; PAMPA): +++; PAMPA-BBB log Pe (cm s−1) (in vitro; PAMPA, 4 h, pH 7.4): −4.41 cm s−1 |
| CC(CC(=O)C[C@@H](C)[C@H]1C[C@H](O)[C@@]2(C)C3=C(C(=O)C[C@]12C)[C@@]1(C)CC[C@H](O)C(C)(C)[C@@H]1CC3)C(=O)O (stereo partly shown) [Ganolucidic acid B] |  | - | 3.8 | 3.8 | - |  |
| CC(CC(=O)CC(C)C1CC(O)C2(C)C3=C(C(=O)CC12C)C1(C)CCC(O)C(C)(CO)C1CC3)C(=O)O (stereo not shown) [Ganolucidic acid C] |  | - | 3.1 | 3.1 | - |  |
| CC(=O)O[C@H]1CC[C@]2(CO)[C@H]3CC[C@]4(C)[C@@H](c5ccc(=O)oc5)CC[C@]4(O)[C@@H]3CC[C@]2(O)C1 [Hellebrigenol-3-monoacetate] |  |  |  |  |  | Cross BBB potential (in vitro; compound within KD extract): ++ (log Pe > −5.5); PAMPA-BBB log Pe (cm s−1) (in vitro; [5]): −4.70 cm s−1; Log P ([1]; compounds of KD extract): 1.6 |
| COc1ccc([C@@H]2CC(=O)c3c(O)cc(O)cc3O2)cc1O [Hesperetin] |  |  | 2.4 |  |  | Papp at 4 h (in vitro; PAMPA, pH 7.4, PAMPA-BBB log Pe): 5.01 ×10⁻⁶ cm/s |
| COc1ccc([C@@H]2CC(=O)c3c(O)cc(O[C@@H]4O[C@H](CO[C@@H]5O[C@@H](C)[C@H](O)[C@@H](O)[C@H]5O)[C@@H](O)[C@H](O)[C@H]4O)cc3O2)cc1O [Hesperidin] |  | - | −1.1 | −1.1 | - |  |
| O=C(O)CCCCCCCCCCCCCCC(=O)O [Hexadecanedioic acid] |  | - | 5.4 | 5.4 | - |  |
| CC(C)c1cc2c(cc1O)C1(C)CCC(=O)C(C)(C)C1CC2 (stereo not shown) [Hinokione] | 4.9 |  |  |  |  | Cross BBB potential (in vitro; compound within RSFE extract): - |
| COc1c(O[C@@H]2O[C@H](CO)[C@@H](O)[C@H](O)[C@H]2O)cc2oc(-c3ccc(O)cc3)cc(=O)c2c1O [Homoplantaginin] | 0.8 |  |  |  |  | Cross BBB potential (in vitro; PAMPA): +++; PAMPA-BBB log Pe (cm s−1) (in vitro; PAMPA, 4 h, pH 7.4): −4.24 cm s−1 |
